Experiment: Effect of pH and buffer type on emulsion stability (pH, particle size before/after one autoclave cycle)
Assay type: physicochemical
Details: after one autoclave cycle, 2% egg lecithin
Description: Tables 6 summarizes the effect of pH and the buffer type on emulsion stability as measured by the particle size. Emulsions were made using 2% egg lecithin, 2.25% glycerin in water for injection. Particle size and pH were measured after one-autoclave cycle. For all emulsions, particle size before autoclaving as represented by D(4,3) was in a range of 0.30 to 0.45 μm. Emulsions were stable at high pH using TRIS and DEA buffer, and at low pH using phosphate buffer over varying concentrations of cinacalcet and soybean oil. Closer to pH 7 using phosphate buffer, increase in particle size was seen after autoclaving.
Particle size data is reported as D(4,3) before and after one autoclaving cycle.

[1] = DEA 0.05%, target cinacalcet 1 mg/mL, SBO conc. 10
[2] = DEA 0.05%, target cinacalcet 5 mg/mL, SBO conc. 5
[3] = DEA 0.05%, target cinacalcet 10 mg/mL, SBO conc. 10
[4] = DEA 0.1%, target cinacalcet 5 mg/mL, SBO conc. 5
[5] = DEA 0.2%, target cinacalcet 5 mg/mL, SBO conc. 5
[6] = DEA 0.3%, target cinacalcet 5 mg/mL, SBO conc. 5
[7] = No buffer, target cinacalcet 5 mg/mL, SBO conc. 10
[8] = PO4 buffer 15 mM, target cinacalcet 5 mg/mL, SBO conc. 10
[9] = TRIS 5 mM, target cinacalcet 1 mg/mL, SBO conc. 10
[10] = TRIS 5 mM, target cinacalcet 5 mg/mL, SBO conc. 10
[11] = TRIS 5 mM, target cinacalcet 10 mg/mL, SBO conc. 20
[12] = TRIS 10 mM, target cinacalcet 5 mg/mL, SBO conc. 5
[13] = TRIS 15 mM, target cinacalcet 5 mg/mL, SBO conc. 5
[14] = TRIS 20 mM, target cinacalcet 5 mg/mL, SBO conc. 5

C[C@@H](NCCCc1cccc(C(F)(F)F)c1)c1cccc2ccccc12 [Cinacalcet, N-(1-(R)-(1-naphthyl)ethyl]-3-[3-(trifluoromethyl)phenyl]-1-aminopropane]
D(4, 3) [1]: 0.44 μm
pH [1]: 8.81
D(4, 3) [2]: 0.39 μm
pH [2]: 8.77
D(4, 3) [3]: 0.41 μm
pH [3]: 8.82
D(4, 3) [4]: 0.40 μm
pH [4]: 8.95
D(4, 3) [5]: 0.35 μm
pH [5]: 9.13
D(4, 3) [6]: 0.36 μm
pH [6]: 9.12
D(4, 3) [7]: 1.48 μm
pH [7]: 8.45
pH (PO4 buffer 10 mM (first of two emulsions), target cinacalcet 5 mg/mL, SBO conc. 5): 6.36
pH (PO4 buffer 10 mM (second of two emulsions), target cinacalcet 5 mg/mL, SBO conc. 5): 6.78
D(4, 3) (PO4 buffer 10 mM, pH 6.36, target cinacalcet 5 mg/mL, SBO conc. 5): 0.39 μm
D(4, 3) (PO4 buffer 10 mM, pH 6.78, target cinacalcet 5 mg/mL, SBO conc. 5): 0.76 μm
D(4, 3) [8]: 1.59 μm
pH [8]: 7.15
D(4, 3) [9]: 0.48 μm
pH [9]: 8.75
pH (TRIS 5 mM, target cinacalcet 5 mg/mL, SBO conc. 5): 8.80
D(4, 3) [10]: 0.32 μm
pH [10]: 8.87
pH (TRIS 5 mM, target cinacalcet 10 mg/mL, SBO conc. 10): 8.82
D(4, 3) [11]: 0.36 μm
pH [11]: 8.82
D(4, 3) [12]: 0.30 μm
pH [12]: 9.06
D(4, 3) [13]: 0.34 μm
pH [13]: 9.04
D(4, 3) [14]: 0.29 μm
pH [14]: 9.13
